Data from US12540131B2 (Merck Sharp & Dohme LLC, priority 2019, dated 2026).

Target: GST tagged truncated human mutant G2019S LRRK2 (Homo sapiens (Human), UniProt Q5S007, G2019S)
Experiment: LRRK2 Km ATP LanthaScreen Assay
Assay type: biochemical
Conditions: G2019S LRRK2, 134 μM ATP (Km ATP), mean values
In short: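 Enzyme (GST-tagged, truncated) was preincubated with compound for 15 min at RT in 50 mM Tris pH 8.5, 10 mM MgCl2, 0.01% Brij-35, 1 mM EGTA, 2 mM DTT and 0.05 mM orthovanadate. Fluorescein-LRRKtide and 134 μM ATP (Km) were then added for 90 min. EDTA and Tb-anti-pERM antibody stopped the reaction; the TR-FRET 520/495 ratio gave 4-parameter IC50s, reported as mean pIC50.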

GST tagged truncated human mutant G2019S LRRK2, sequence (Q5S007 970-2527 G2019S): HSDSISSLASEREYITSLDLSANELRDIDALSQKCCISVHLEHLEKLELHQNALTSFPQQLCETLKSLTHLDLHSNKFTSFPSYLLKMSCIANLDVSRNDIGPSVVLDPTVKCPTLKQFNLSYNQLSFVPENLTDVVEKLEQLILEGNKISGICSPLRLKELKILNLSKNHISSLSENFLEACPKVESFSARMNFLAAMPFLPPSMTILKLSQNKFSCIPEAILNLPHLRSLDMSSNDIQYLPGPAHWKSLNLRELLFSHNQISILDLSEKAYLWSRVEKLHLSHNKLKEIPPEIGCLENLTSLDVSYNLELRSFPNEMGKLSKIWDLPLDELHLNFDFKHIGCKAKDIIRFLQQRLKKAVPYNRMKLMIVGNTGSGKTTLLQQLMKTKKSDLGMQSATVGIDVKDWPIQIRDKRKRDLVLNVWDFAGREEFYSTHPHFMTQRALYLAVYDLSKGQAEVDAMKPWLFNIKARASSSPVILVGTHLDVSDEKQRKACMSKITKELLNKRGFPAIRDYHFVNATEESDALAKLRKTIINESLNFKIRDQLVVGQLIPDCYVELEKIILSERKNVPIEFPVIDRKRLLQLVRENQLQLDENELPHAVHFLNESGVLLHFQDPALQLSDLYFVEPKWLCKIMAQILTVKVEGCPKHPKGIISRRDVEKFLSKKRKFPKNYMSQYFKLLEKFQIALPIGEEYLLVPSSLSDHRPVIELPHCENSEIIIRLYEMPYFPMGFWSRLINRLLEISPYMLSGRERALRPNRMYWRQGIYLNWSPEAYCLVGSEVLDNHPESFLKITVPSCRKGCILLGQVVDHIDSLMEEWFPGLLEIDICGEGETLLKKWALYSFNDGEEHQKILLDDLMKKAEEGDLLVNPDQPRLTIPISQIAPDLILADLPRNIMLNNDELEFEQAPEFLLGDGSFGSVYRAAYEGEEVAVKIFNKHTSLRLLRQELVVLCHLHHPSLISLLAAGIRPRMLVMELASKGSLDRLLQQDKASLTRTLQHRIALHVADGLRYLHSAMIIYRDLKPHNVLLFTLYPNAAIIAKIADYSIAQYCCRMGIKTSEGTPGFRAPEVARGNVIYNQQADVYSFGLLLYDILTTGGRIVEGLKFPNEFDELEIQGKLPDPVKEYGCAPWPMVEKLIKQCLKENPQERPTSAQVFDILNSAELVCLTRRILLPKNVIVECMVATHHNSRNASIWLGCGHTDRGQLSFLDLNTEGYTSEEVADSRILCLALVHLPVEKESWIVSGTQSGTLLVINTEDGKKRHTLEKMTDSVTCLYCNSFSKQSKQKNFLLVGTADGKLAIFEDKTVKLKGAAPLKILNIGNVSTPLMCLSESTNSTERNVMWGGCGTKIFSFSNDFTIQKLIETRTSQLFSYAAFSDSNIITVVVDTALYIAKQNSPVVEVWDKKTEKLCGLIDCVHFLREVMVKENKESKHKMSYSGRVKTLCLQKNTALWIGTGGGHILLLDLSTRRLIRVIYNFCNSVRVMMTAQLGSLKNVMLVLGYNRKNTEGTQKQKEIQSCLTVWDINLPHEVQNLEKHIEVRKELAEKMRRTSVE

| Structure (SMILES) | LRRK2 pIC50 |
| --- | --- |
| CC1(n2ncc(Nc3ncc4cc(Cl)c(C5CCNCC5)cc4n3)c2Cl)CC1 [Ex-8.9, 6-chloro-N-[5-chloro-1-(1-methylcyclopropyl)-1H-pyrazol-4-yl]-7-(piperidin-4-yl)quinazolin-2-amine] | >9.20 |
| Cc1cc2cnc(Nc3cnn(C45CC(C4)C5)c3C)nc2cc1C1CCN(C2(C)COC2)CC1 [Ex-5.8, N-[1-(bicyclo[1.1.1]pentan-1-yl)-5-methyl-1H-pyrazol-4-yl]-6-methyl-7-[1-(3-methyloxetan-3-yl)piperidin-4-yl]quinazolin-2-amine] | >9.20 |
| Cc1c(Nc2ncc3cc(Cl)c(C4CCN(C[C@@H](O)c5cc(F)ccc5F)CC4)cc3n2)cnn1C1CC1 [Ex-4.205, (1S)-2-(4-{6-chloro-2-[(1-cyclopropyl-5-methyl-1H-pyrazol-4-yl)amino]quinazolin-7-yl}piperidin-1-yl)-1-(2,5-difluorophenyl)ethan-1-ol] | 8.40 |
| Cc1c(Nc2ncc3cc(Cl)c([C@@H]4CCN(C5COC[C@@H]5O)C[C@H]4F)cc3n2)cnn1C1CC1 (single isomer, unassigned) [Ex-4.127, (3S,4S)(3S,4S) or (3S,4S)(3R,4R) or (3R,4R)(3S,4S) or (3R,4R)(3R,4R) 4-[4-{6-chloro-2-[(1-cyclopropyl-5-methyl-1H-pyrazol-4-yl)amino]quinazolin-7-yl}-3-fluoropiperidin-1-yl]oxolan-3-ol] | >9.20 |
| [2H]C([2H])([2H])n1ncc(Nc2ncc3cc(Cl)c(C4CCN([C@H]5COC[C@H]5O)CC4)cc3n2)c1Cl (single isomer, unassigned) [Ex-2.70, (3S,4S) or (3R,4R) 4-(4-(6-chloro-2-((5-chloro-1-(methyl-d3)-1H-pyrazol-4-yl)amino)quinazolin-7-yl)piperidin-1-yl)tetrahydrofuran-3-ol] | >9.20 |
| CC(n1ncc(Nc2ncc3cc(Cl)c([C@H]4CCN(C)C[C@@H]4F)cc3n2)c1Cl)C(C)(C)O (single isomer, unassigned) [Ex-4.68, (R)(3S,4S) or (R)(3R,4R) or (S)(3S,4S) or (S)(3R,4R) 3-(5-chloro-4-{[6-chloro-7-(3-fluoro-1-methylpiperidin-4-yl)quinazolin-2-yl]amino}-1H-pyrazol-1-yl)-2-methylbutan-2-ol] | 8.92 |
| Cc1cc2cnc(Nc3cnn(C45CC(C4)C5)c3Cl)nc2cc1[C@H]1CCN([C@@H]2COC[C@@H]2O)C[C@@H]1F (single isomer, unassigned) [Ex-8.35, (3S,4S)(3S,4S) or (3S,4S)(3R,4R) or (3R,4R)(3S,4S) or (3R,4R)(3R,4R) 4-[4-(2-{[1-(bicyclo[1.1.1]pentan-1-yl)-5-chloro-1H-pyrazol-4-yl]amino}-6-methylquinazolin-7-yl)-3-fluoropiperidin-1-yl]oxolan-3-ol] | 8.68 |
| O[C@@H]1COCC1N1CC[C@@H](c2cc3nc(Nc4cnn(C5CC5)c4Cl)ncc3cc2Cl)[C@H](F)C1 (single isomer, unassigned) [Ex-4.123, (3S,4S)(3S,4S) or (3S,4S)(3R,4R) or (3R,4R)(3S,4S) or (3R,4R)(3R,4R) 4-{6-chloro-2-[(5-chloro-1-cyclopropyl-1H-pyrazol-4-yl)amino]quinazolin-7-yl}-3-fluoropiperidin-1-yl]oxolan-3-ol] | 8.37 |
| [2H]C1([2H])OC([2H])([2H])C1N1CCC(c2cc3nc(Nc4cnn(C5CC5)c4Cl)ncc3cc2Cl)CC1 [Ex-8.16, 6-chloro-N-(5-chloro-1-cyclopropyl-1H-pyrazol-4-yl)-7-(1-(oxetan-3-yl-2,2,4,4-d4)piperidin-4-yl)quinazolin-2-amine] | 9.18 |
| Cc1cc(Nc2ncc3cc(C)c(C4CCN([C@]5(C)COC[C@@H]5O)CC4)cc3n2)n(C)n1 (single isomer, unassigned) [Ex-5.13, (3S,4S)(3S,4S) or (3S,4S)(3R,4R) or (3R,4R)(3S,4S) or (3R,4R)(3R,4R) 4-(4-{2-[(1,3-dimethyl-1H-pyrazol-5-yl)amino]-6-methylquinazolin-7-yl}piperidin-1-yl)-4-methyloxolan-3-ol] | 9.00 |
| Cc1c(Nc2ncc3cc(Cl)c([C@@H]4CCN([C@@H]5COC[C@@H]5O)C[C@H]4F)cc3n2)cnn1C1CC1(F)F (single isomer, unassigned) [Ex-4.181, (R)(3S,4S)(3S,4S) or (R)(3S,4S)(3R,4R) or (R)(3R,4R)(3S,4S) or (R)(3R,4R)(3R,4R) or (S)(3S,4S)(3S,4S) or (S)(3S,4S)(3R,4R) or (S)(3R,4R)(3S,4S) or (S)(3R,4R)(3R,4R) 4-(4-(6-chloro-2-((1-(2,2-difluorocyclopropyl)-5-methyl-1H-pyrazol-4-yl)amino)quinazolin-7-yl)-3-fluoropiperidin-1-yl)tetrahydrofuran-3-olyl]amino}quinazolin-7-yl)-3-fluoropiperidin-1-yl]oxolan-3-ol] | >9.20 |
| C[C@@]1(N2CCC(c3cc4nc(Nc5ccnn5C5CC5(F)F)ncc4cc3Cl)CC2)COC[C@@H]1O (single isomer, unassigned) [Ex-2.87, (S)(3S,4S) or (S)(3R,4R) or (R)(3S,4S) or (R)(3R,4R) 4-[4-(6-chloro-2-{[1-(2,2-difluorocyclopropyl)-1H-pyrazol-5-yl]amino}quinazolin-7-yl)piperidin-1-yl]-4-methyloxolan-3-ol] | 8.04 |
| Cc1cc2cnc(Nc3cnn(C4CC4)c3Cl)nc2cc1[C@@H]1CCN(C2COC[C@H]2O)C[C@H]1F (single isomer, unassigned) [Ex-4.136, (3S,4S)(3S,4S) or (3S,4S)(3R,4R) or (3R,4R)(3S,4S) or (3R,4R)(3R,4R) 4-(4-{2-[(5-chloro-1-cyclopropyl-1H-pyrazol-4-yl)amino]-6-methylquinazolin-7-yl}-3-fluoropiperidin-1-yl)oxolan-3-ol] | 8.41 |
| Cc1c(Nc2ncc3cc(Cl)c([C@@H]4CCN([C@H]5COC[C@H]5O)C[C@H]4F)cc3n2)cnn1C12CC(C1)C2 (single isomer, unassigned) [Ex-4.162, (3S,4S)(3S,4S) or (3S,4S)(3R,4R) or (3R,4R)(3S,4S) or (3R,4R)(3R,4R) 4-[4-(2-{[1-(bicyclo[1.1.1]pentan-1-yl)-5-methyl-1H-pyrazol-4-yl]amino}-6-chloroquinazolin-7-yl)-3-fluoropiperidin-1-yl]oxolan-3-ol] | >9.20 |
| Cc1c(Nc2ncc3cc(Cl)c(C4CCN(C[C@@H](O)c5ccccc5F)CC4)cc3n2)cnn1C1CC1 [Ex-4.202, (1S)-2-(4-{6-chloro-2-[(1-cyclopropyl-5-methyl-1H-pyrazol-4-yl)amino]quinazolin-7-yl}piperidin-1-yl)-1-(2-fluorophenyl)ethan-1-ol] | 8.47 |
| Cc1cc2cnc(Nc3cnn(C4CC4)c3Cl)nc2cc1[C@@H]1CCN(C2COCC2F)C[C@H]1F (single isomer, unassigned) [Ex-7.9, (3S,4R)(3S,4S) or (3R,4S)(3S,4S) or (3R,4R)(3S,4S) or (3S,4S)(3S,4S) or (3S,4R)(3R,4R) or (3R,4S)(3R,4R) or (3R,4R)(3R,4R) or (3S,4S)(3R,4R) N-(5-chloro-1-cyclopropyl-1H-pyrazol-4-yl)-7-[3-fluoro-1-(4-fluorooxolan-3-yl)piperidin-4-yl]-6-methylquinazolin-2-amine] | 9.04 |
| CC1(N2CC[C@H](c3cc4nc(Nc5cnn(C6CC6(F)F)c5Cl)ncc4cc3Cl)[C@@H](F)C2)COC[C@@H]1O (single isomer, unassigned) [Ex-4.10, (R)(3S,4S)(3S,4S) or (R)(3S,4S)(3R,4R) or (R)(3R,4R)(3S,4S) or (R)(3R,4R)(3R,4R) or (S)(3S,4S)(3S,4S) or (S)(3S,4S)(3R,4R) or (S)(3R,4R)(3S,4S) or (S)(3R,4R)(3R,4R) 4-(6-chloro-2-((5-chloro-1-(2,2-difluorocyclopropyl)-1H-pyrazol-4-yl)amino)quinazolin-7-yl)-3-fluoropiperidin-1-yl)-4-methyltetrahydrofuran-3-ol] | >9.20 |

Same assay, conditions: G2019S LRRK2, 134 μM ATP (Km ATP), mean values; read-out: LRRK2 pIC50 (converted)

| Structure (SMILES) | IC50 [nM] |
| --- | --- |
| COCC12CC(n3ncc(Nc4ncc5cc(Cl)c(C6CCN(C7(C)COC7)CC6)cc5n4)c3C)(C1)C2 [Ex-2.32, 6-chloro-N-{1-[3-(methoxymethyl)bicyclo[1.1.1]pentan-1-yl]-5-methyl-1H-pyrazol-4-yl}-7-[1-(3-methyloxetan-3-yl)piperidin-4-yl] quinazolin-2-amine] | < 0.631 |
| Cc1c(Nc2ncc3cc(Cl)c(C4CCN(C5(C)COC5)CC4)cc3n2)cnn1C1CC1(F)F (single isomer, unassigned) [Ex-2.30, (S) or (R) 6-chloro-N-[1-(2,2-difluorocyclopropyl)-5-methyl-1H-pyrazol-4-yl]-7-[1-(3-methyloxetan-3-yl)piperidin-4-yl]quinazolin-2-amine] | 0.646 |
| Cc1c(Nc2ncc3cc(Cl)c(C4CCN(CC(O)c5ccc(Cl)cc5)CC4)cc3n2)cnn1C1CC1 (single isomer, unassigned) [Ex-4.225, (S) or (R) 2-(4-{6-chloro-2-[(1-cyclopropyl-5-methyl-1H-pyrazol-4-yl)amino]quinazolin-7-yl}piperidin-1-yl)-1-(4-chlorophenyl)ethan-1-ol] | 21.4 |
| F[C@@H]1CNCC[C@H]1c1cc2nc(Nc3cnn(C4CC4)c3Cl)ncc2cc1Cl (single isomer, unassigned) [Ex-4.2, (3S,4S) or (3R,4R) 6-chloro-N-(5-chloro-1-cyclopropyl-1H-pyrazol-4-yl)-7-(3-fluoropiperidin-4-yl)quinazolin-2-amine] | < 0.631 |
| CC(C)(O)CN1CCC(c2cc3nc(Nc4cnn(C5CC5)c4)ncc3cc2Cl)C1 (single isomer, unassigned) [Ex-1.4, (S) or (R) 1-(3-(6-chloro-2-((1-cyclopropyl-1H-pyrazol-4-yl)amino)quinazolin-7-yl)pyrrolidin-1-yl)-2-methylpropan-2-ol] | 24 |
